Results on nine molecules are retold here after ChEMBL document CHEMBL3217622, “Design of 7-amino-6-chloro-3H-imidazo[4,5-b]pyridine scaffold from 5-chloro-2,4-diaminopyrimidine pharmacophore: identification of potent inhibitors of anaplastic lymphoma kinase” (Medchemcomm, 2012).

The nature of data set [1]: (§1) AUC (0 to infinity) in rat at 5 mg/kg, po. The format is ADME, organism-based, Plasma. Further details: dose 5 mg/kg, route oral, time infinity. As to conditions: plasma.
A further data set deals with Cytochrome P450 2C9 (Homo sapiens, UniProt P11712). As to the kind of experiment: Inhibition of CYP2C9 in human pooled liver microsomes using diclofenac as substrate by LC/MS/MS analysis.
A further data set has as its target T1, Cytochrome P450 1A2 (Homo sapiens, UniProt P05177).
T1 sequence (P05177 whole entry): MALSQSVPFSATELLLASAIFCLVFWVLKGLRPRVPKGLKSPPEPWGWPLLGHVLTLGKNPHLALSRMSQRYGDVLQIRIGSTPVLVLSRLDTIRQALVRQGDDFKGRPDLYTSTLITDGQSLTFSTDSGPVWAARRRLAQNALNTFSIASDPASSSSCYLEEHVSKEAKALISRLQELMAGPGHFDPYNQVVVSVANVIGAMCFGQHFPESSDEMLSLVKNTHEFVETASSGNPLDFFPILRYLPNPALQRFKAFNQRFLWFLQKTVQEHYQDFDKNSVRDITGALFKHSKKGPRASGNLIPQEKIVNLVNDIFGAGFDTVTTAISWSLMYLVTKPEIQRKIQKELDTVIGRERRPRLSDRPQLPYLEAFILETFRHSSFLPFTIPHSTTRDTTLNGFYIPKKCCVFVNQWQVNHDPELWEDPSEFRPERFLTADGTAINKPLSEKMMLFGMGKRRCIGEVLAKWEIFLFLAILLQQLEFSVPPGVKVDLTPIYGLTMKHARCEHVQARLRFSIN
As to the kind of experiment: Inhibition of CYP1A2 in human pooled liver microsomes using phenacetin as substrate by LC/MS/MS analysis.

In data set [2] the target is T2, Cytochrome P450 3A4 (Homo sapiens, UniProt P08684). As to the kind of experiment: Inhibition of CYP3A4 in human pooled liver microsomes using midazolam as substrate by LC/MS/MS analysis.
Data set [3] concerns the target T2, Cytochrome P450 3A4. The data set can be described thus: Inhibition of CYP3A4 in human pooled liver microsomes using testosterone as substrate by LC/MS/MS analysis.
Data set [4] can be described thus: AUC (0 to infinity) in rat at 1 mg/kg, iv. As to conditions: plasma. The data set is classed as ADME, organism-based. Details: dose 1 mg/kg, route intravenous, time infinity.
Data set [5] in a line: Oral bioavailability in rat at 5 mg/kg. The data set is classed as ADME, organism-based. As to conditions: in vivo.
For data set [6], the system named is Rattus norvegicus. The data set can be described thus: Half life in rat at 1 mg/kg, iv. The data set is classed as ADME, organism-based. Further details: dose 1 mg/kg, route intravenous. The conditions noted are these: in vivo.
Another data set concerns the target Cytochrome P450 2D6 (Homo sapiens, UniProt P10635). As to the kind of experiment: Inhibition of CYP2D6 in human pooled liver microsomes using dextromethorphan as substrate by LC/MS/MS analysis.
Data set [7] is described as follows: (§2) Cmax in rat at 5 mg/kg, po. The format is ADME, organism-based. Further details: dose 5 mg/kg, route oral. The conditions noted are these: in vivo.
A further data set has as its target Cytochrome P450 2C19 (Homo sapiens, UniProt P33261). As to the kind of experiment: Inhibition of CYP2C19 in human pooled liver microsomes using S-mephenytoin as substrate by LC/MS/MS analysis.
A short description of data set [8]: Apparent permeability of the compound from apical to basolateral side in human Caco2 cells by absorption system analysis. As to conditions: Caco-2.
Data set [9] concerns Rattus norvegicus. The data set can be described thus: Volume of distribution in rat at 1 mg/kg, iv. The data set is classed as ADME, organism-based. Further details: dose 1 mg/kg, route intravenous. The conditions noted are these: in vivo.
In the next data set the target is Insulin receptor (Homo sapiens, UniProt P06213). As to the kind of experiment: Inhibition of insulin receptor kinase (unknown origin).
The target of data set [10] is Voltage-gated inwardly rectifying potassium channel KCNH2 (Homo sapiens, UniProt Q12809). As to the kind of experiment: Inhibition of human ERG by automated patch-clamp assay.
Data set [11] concerns the target ALK tyrosine kinase receptor (Homo sapiens, UniProt Q9UM73). As to the kind of experiment: Inhibition of ALK (unknown origin).
In data set [12] the test system is Rattus norvegicus. The description is as §1. The format is ADME, organism-based, Plasma. Details: dose 5 mg/kg, route oral, time infinity. The conditions noted are these: in vivo, BLD = below limit of detection.
For data set [13], the system named is Rattus norvegicus. Described as §2. The format is ADME, organism-based. Further details: dose 5 mg/kg, route oral. The conditions noted are these: in vivo, BLD = below limit of detection.
Data set [14] relates to Liver microsome. As to the kind of experiment: Metabolic stability in human liver microsomes assessed as GSH conjugation by LC/MS analysis. The format is ADME.
Data set [15] deals with Liver microsome. As to the kind of experiment: Bioactivation in human liver microsomes in presence of NADPH.

The structures appear in SMILES notation.

Chain of Cytochrome P450 2C9 (P11712 whole entry): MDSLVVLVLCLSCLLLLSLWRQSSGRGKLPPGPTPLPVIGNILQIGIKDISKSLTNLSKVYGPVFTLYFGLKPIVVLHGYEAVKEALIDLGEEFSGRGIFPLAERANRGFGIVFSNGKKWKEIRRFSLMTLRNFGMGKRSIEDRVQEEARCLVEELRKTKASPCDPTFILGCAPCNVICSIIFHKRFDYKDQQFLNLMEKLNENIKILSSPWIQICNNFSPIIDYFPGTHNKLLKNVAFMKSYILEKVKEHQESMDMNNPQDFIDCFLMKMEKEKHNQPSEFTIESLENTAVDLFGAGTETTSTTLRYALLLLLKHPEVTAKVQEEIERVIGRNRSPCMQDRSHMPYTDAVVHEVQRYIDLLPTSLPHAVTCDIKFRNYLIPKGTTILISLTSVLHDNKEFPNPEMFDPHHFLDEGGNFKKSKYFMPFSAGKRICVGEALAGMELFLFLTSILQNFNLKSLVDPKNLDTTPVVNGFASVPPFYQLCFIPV
Chain of Cytochrome P450 2D6 (P10635 whole entry): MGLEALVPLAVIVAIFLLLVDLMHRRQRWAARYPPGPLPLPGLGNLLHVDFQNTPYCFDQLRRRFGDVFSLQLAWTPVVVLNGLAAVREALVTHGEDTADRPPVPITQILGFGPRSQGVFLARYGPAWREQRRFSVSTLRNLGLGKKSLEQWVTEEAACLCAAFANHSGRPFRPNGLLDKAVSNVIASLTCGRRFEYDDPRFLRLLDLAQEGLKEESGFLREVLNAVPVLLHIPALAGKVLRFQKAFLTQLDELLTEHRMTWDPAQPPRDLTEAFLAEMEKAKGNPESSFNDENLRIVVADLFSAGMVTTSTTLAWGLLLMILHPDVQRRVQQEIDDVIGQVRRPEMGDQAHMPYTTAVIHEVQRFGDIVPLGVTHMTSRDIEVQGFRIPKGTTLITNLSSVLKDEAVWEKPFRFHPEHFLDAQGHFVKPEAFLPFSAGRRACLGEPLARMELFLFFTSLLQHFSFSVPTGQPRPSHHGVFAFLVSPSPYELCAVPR
T2 sequence (P08684 whole entry): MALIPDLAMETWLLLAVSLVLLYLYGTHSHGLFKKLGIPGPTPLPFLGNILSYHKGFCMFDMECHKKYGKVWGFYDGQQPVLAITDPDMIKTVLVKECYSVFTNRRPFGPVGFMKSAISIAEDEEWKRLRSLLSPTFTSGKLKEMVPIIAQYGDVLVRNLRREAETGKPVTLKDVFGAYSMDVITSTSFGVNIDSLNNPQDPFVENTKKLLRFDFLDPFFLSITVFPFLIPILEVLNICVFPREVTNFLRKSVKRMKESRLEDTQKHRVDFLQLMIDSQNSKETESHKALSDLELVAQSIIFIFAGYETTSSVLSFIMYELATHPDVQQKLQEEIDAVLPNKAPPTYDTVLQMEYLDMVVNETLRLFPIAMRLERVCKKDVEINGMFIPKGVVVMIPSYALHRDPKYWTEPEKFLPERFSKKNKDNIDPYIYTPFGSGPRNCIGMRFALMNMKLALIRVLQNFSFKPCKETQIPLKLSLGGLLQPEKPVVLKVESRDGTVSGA
Chain of Cytochrome P450 2C19 (P33261 whole entry): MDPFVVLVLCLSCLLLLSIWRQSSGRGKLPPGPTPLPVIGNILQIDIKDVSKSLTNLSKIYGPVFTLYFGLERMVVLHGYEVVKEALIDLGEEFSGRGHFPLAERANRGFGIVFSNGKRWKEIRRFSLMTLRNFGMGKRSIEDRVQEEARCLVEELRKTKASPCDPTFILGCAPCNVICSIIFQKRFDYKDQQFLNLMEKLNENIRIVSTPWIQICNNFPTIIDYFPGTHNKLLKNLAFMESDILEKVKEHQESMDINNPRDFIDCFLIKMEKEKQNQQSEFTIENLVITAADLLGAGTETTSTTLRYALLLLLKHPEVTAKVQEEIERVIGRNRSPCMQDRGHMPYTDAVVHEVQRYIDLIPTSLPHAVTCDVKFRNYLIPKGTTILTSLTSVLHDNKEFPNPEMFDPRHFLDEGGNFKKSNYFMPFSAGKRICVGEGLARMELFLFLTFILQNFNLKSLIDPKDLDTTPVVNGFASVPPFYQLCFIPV
Chain of ALK tyrosine kinase receptor (Q9UM73 whole entry): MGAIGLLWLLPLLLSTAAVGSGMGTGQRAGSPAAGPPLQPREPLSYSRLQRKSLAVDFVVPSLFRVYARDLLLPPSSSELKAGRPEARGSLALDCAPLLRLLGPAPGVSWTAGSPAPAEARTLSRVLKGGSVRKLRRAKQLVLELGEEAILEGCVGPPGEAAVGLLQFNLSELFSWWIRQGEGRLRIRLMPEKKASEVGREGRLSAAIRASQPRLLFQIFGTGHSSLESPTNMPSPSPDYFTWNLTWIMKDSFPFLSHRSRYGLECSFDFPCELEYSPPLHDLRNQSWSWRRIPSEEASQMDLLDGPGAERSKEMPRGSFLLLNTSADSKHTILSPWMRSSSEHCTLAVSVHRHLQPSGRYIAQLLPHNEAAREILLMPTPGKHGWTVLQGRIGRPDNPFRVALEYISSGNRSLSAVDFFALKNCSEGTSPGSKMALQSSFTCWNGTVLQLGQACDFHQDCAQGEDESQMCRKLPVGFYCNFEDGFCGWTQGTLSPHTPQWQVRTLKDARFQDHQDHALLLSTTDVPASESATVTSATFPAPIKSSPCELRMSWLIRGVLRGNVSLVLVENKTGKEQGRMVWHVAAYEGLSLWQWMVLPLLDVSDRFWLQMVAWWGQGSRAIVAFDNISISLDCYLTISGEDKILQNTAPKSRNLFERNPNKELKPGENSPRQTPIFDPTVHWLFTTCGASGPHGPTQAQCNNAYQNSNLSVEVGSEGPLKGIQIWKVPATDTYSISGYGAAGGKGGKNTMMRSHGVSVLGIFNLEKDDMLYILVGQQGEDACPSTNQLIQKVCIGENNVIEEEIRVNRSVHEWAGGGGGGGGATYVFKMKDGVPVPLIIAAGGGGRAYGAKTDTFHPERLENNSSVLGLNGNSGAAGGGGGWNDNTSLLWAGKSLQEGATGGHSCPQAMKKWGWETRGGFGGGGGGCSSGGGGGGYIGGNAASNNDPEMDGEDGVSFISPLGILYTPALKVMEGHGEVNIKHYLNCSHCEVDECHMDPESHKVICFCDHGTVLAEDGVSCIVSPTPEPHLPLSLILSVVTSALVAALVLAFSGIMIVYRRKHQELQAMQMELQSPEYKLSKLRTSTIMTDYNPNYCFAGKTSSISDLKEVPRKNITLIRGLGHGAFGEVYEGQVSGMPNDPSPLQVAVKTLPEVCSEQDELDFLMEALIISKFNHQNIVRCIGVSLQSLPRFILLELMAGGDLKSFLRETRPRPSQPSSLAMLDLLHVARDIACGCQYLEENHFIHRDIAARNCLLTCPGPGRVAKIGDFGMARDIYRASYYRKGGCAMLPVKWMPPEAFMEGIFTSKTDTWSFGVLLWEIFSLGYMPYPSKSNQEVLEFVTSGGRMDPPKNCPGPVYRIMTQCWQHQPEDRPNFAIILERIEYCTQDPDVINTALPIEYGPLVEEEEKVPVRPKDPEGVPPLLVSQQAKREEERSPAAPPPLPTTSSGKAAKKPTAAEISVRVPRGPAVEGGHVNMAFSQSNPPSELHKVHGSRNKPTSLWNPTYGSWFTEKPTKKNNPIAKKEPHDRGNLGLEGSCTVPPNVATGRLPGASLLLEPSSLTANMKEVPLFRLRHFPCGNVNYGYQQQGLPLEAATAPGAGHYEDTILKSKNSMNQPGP
Chain of Insulin receptor (P06213 28-758 limits assumed): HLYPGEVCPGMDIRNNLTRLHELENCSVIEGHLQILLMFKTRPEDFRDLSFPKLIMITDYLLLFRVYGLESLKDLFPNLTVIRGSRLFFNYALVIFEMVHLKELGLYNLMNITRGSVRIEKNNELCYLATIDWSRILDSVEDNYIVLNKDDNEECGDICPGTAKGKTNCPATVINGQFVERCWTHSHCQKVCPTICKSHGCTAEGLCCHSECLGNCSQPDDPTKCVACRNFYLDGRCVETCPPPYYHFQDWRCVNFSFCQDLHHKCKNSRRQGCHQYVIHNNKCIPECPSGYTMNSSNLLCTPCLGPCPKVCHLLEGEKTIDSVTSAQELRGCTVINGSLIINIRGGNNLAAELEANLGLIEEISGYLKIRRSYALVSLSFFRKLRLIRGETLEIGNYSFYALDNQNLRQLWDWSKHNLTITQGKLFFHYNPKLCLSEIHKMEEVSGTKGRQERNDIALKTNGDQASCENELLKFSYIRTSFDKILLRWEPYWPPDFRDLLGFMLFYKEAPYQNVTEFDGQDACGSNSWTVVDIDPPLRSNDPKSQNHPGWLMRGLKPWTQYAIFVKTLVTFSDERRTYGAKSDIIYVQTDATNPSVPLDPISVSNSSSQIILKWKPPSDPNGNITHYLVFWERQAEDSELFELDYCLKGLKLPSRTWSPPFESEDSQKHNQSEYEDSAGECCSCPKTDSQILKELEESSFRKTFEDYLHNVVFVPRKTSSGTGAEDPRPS
Chain of Insulin receptor (P06213 763-1382 limits assumed): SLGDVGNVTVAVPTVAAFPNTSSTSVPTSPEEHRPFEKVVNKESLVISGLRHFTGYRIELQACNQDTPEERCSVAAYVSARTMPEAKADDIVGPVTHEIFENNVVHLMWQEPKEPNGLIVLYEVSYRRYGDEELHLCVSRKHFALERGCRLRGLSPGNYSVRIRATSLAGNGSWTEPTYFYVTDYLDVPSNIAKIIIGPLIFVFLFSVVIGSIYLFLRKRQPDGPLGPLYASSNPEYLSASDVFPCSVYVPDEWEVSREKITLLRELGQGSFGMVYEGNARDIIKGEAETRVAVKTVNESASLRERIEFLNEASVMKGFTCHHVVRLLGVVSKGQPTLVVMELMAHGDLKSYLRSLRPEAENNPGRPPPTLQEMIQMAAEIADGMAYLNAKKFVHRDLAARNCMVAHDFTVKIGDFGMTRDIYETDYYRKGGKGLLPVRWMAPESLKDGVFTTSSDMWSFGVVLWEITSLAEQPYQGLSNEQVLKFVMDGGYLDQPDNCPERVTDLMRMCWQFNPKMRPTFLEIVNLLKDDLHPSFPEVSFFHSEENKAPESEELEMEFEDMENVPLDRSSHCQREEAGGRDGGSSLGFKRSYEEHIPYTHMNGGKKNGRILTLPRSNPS

With `COc1cc(CN2CCOCC2)ccc1-c1nc2c(N[C@H]3[C@@H](C(N)=O)[C@@H]4C=C[C@H]3C4)c(Cl)cnc2[nH]1`, the figures for the AUC(0-inf) in [1] and in data set [4] were 1730 ng·h/mL and 451 ng·h/mL, respectively. The half-maximal inhibitory concentration (IC50) on Cytochrome P450 2C9, at Cytochrome P450 1A2, against Cytochrome P450 3A4 [2], on Cytochrome P450 3A4 [3], against Cytochrome P450 2D6 and at Cytochrome P450 2C19 was over 30 µM throughout. In data set [5], the bioavailability came to 76%. This molecule also returned a t1/2 in the data set with Rattus norvegicus [6] of 1.6 h. This molecule registered a Cmax in data set [7] of 317 ng/mL. Moreover, in data set [8], the Papp A→B worked out at 10.8 ×10⁻⁶ cm/s. The distribution volume (Vd) in the data set on Rattus norvegicus [9] is 5.6 L/kg.

With `COc1cc(N2CCC(N3CCOCC3)CC2)ccc1-c1nc2c(N[C@H]3[C@@H](C(N)=O)[C@@H]4C=C[C@H]3C4)c(Cl)cnc2[nH]1`, the AUC(0-inf) in data set [1] came to 740 ng·h/mL; in [4], 1750 ng·h/mL. Besides, in data set [5], the bioavailability is 8%. Also, the t1/2 in the data set on Rattus norvegicus [6] was determined as 1.9 h. For the same molecule, the Cmax in data set [7] worked out at 158 ng/mL. In the data set on Rattus norvegicus [9], this molecule displayed a distribution volume (Vd) of 1.8 L/kg.

Consider `COc1cccc(-c2nc3c(N[C@H]4[C@@H](C(N)=O)[C@@H]5C=C[C@H]4C5)c(Cl)cnc3[nH]2)c1`, for which the IC50 at Insulin receptor is over 3 µM.

Consider `COc1cc(N2CCN(C)CC2)ccc1-c1nc2c(N[C@H]3[C@@H](C(N)=O)[C@@H]4C=C[C@H]3C4)c(Cl)cnc2[nH]1`, for which the total exposure AUC(0-inf) in [1] was determined as 148 ng·h/mL; in data set [4], 416 ng·h/mL. Moreover, the IC50 against Cytochrome P450 2C9 was over 30 µM; at Cytochrome P450 1A2, over 30 µM; on Cytochrome P450 3A4 [2] it was 13.7 µM; at Cytochrome P450 3A4 [3], 8.5 µM; in data set [10], over 10 µM; on Cytochrome P450 2D6, over 30 µM. Also, the concentration for half-maximal inhibition (IC50) against Cytochrome P450 2C19 was over 30 µM. The bioavailability in [5] turned out to be 7%. The t1/2 with Rattus norvegicus [6] was 1.4 h. Also, the highest level in [7] (Cmax) was 26 ng/mL. The apparent permeability from apical to basolateral (Papp A→B) in [8] was 5 ×10⁻⁶ cm/s. The Vd in the data set with Rattus norvegicus [9] came to 5.3 L/kg.

`NC(=O)[C@@H]1[C@H](Nc2ccnc3[nH]c(-c4ccc(N5CCOCC5)cc4)nc23)[C@H]2C=C[C@@H]1C2` registered an IC50 in [11] of over 10 µM.

Regarding `COc1cc(CN2CCN(C)CC2)ccc1-c1nc2c(N[C@H]3[C@@H](C(N)=O)[C@@H]4C=C[C@H]3C4)c(Cl)cnc2[nH]1`, the AUC entry in the data set with Rattus norvegicus [12] is “BLD”. For the same molecule, the AUC(0-inf) in data set [4] was 1140 ng·h/mL. In data set [5], the bioavailability worked out at 0%. Further, the t1/2 in the data set with Rattus norvegicus [6] worked out at 1.1 h. Moreover, the Cmax result in the data set with Rattus norvegicus [13] was “BLD”. For the same molecule, the Vd in the data set with Rattus norvegicus [9] is 1.6 L/kg.

Consider `CN1CCN(c2ccc(-c3nc4c(N[C@H]5[C@@H](C(N)=O)[C@@H]6C=C[C@H]5C6)ccnc4[nH]3)cc2)CC1`, for which the 50% inhibitory concentration (IC50) in [11] is over 3 µM.

`COc1cc(N2CCC(N3CCN(C)CC3)CC2)ccc1-c1nc2c(N[C@H]3[C@@H](C(N)=O)[C@@H]4C=C[C@H]3C4)c(Cl)cnc2[nH]1`: the AUC entry with Rattus norvegicus [12] was “BLD”. In addition, the IC50 against Cytochrome P450 2C9, against Cytochrome P450 1A2, on Cytochrome P450 3A4 [2], on Cytochrome P450 3A4 [3], on Cytochrome P450 2D6 and against Cytochrome P450 2C19 was over 30 µM in each case. Also, in [4], the AUC(0-inf) was 1430 ng·h/mL. The molecule also displayed a bioavailability in data set [5] of 0%. In addition, in the data set on Rattus norvegicus [6], the t1/2 was 2.5 h. Also, the peak concentration (Cmax) result in the data set with Rattus norvegicus [13] is recorded as “BLD”. The molecule further showed a distribution volume (Vd) in the data set with Rattus norvegicus [9] of 3 L/kg.

As for `COc1cc(N2CCOCC2)ccc1-c1nc2c(N[C@H]3[C@@H](C(N)=O)[C@@H]4C=C[C@H]3C4)c(Cl)cnc2[nH]1`, the AUC(0-inf) was determined as 2580 ng·h/mL in data set [1] and 2480 ng·h/mL in [4]. The Stability entry with Liver microsome [14] and in the data set with Liver microsome [15] was “Stable” in each case. In addition, the bioavailability in data set [5] came to 21%. This molecule also yielded a t1/2 with Rattus norvegicus [6] of 1.4 h. In data set [7], this molecule registered a Cmax of 429 ng/mL. The molecule also yielded a Vd with Rattus norvegicus [9] of 0.8 L/kg.
